From publication PMC7319089, “Multi-Component Comparative Pharmacokinetics in Rats After Oral Administration of Fructus aurantii Extract, Naringin, Neohesperidin, and Naringin-Neohesperidin” (Frontiers in Pharmacology, 2020)

How the values were obtained:
[1] = Pharmacokinetics in SD rats after oral administration of FA extract, NA, NHE or NA-NHE (UPLC-MS/MS of plasma, DAS 3.1); assay type: in vivo, Sprague-Dawley (SD) rats; conditions: for AUC(0-t) / AUC(0-∞) / CL/F / Ka / V1/F / t1/2(Ka) / t1/2α / t1/2β: n = 6
Description: The 20 μl of β-glucuronidase and 15 μl of sulfatase were added into 50 μl of plasma sample. After vortexed for 30 s, the mixture was incubated at 37°C for 2 h in a water bath, then placed in ice water for 5 min to terminate the reaction ([Xu et al., 2019]). IS solution (20 µl, 5 μg/ml) and acetonitrile (1.0 ml) were added into the mixture and vortexed for 2 min. […] Rats were randomly divided into the following four groups (6 rats in each group): naringin (NA), neohesperidin (NHE), naringin-neohesperidin (NA-NHE), and FA extract group. The oral administration doses were selected according to the literatures ([Tong et al., 2012]; [Yang et al., 2012]; [Committee of National Pharmacopoeia of RP China, 2015]; [Wang et al., 2018]; [Zhang et al., 2018]; [Chen et al., 2019]), the contents of the five components in FA, and the preliminary experiments. The specific doses were as follows: […] The rats had free access to water during the experiment. The blood samples were then immediately centrifuged at 4,000 rpm for 10 min. The plasma was frozen and stored at −80°C until analysis. The plasma concentration of the studied compounds was determined according to the daily calibration curve.

[2] = set-up: method as in Wang et al., 2018; conditions: after orally administering 30 g/kg FA decoction; ref Wang et al., 2018; cited from earlier work
[3] = SD rats, oral compatibility NA-NHE (naringin 1.85 g/kg and neohesperidin 1.81 g/kg), two-compartment parameters
[4] = SD rats, oral monomer (naringin 1.85 g/kg or neohesperidin 1.81 g/kg), two-compartment parameters
[5] = male SD rats, oral FA extract 10.8 g/kg of the original medicinal material, two-compartment model parameters

- AUC(0-t) [1, 3]: 3475.14 ± 714.19 ng·h/mL
- AUC(0-∞) [1, 3]: 3557.64 ± 726.84 ng·h/mL
- CL/F [1, 3]: 60.5 ± 13.3 mL/min/kg
- Ka [1, 3]: 4.40 ± 0.83 h⁻¹
- V1/F [1, 3]: 4.37 ± 1.16 L/kg
- t1/2(Ka) [1, 3]: 0.57 ± 0.11 h
- t1/2α [1, 3]: 3.22 ± 0.42 h
- t1/2β [1, 3]: 3.43 ± 0.55 h
- AUC(0-t) [1, 4]: 2932.05 ± 625.03 ng·h/mL
- AUC(0-∞) [1, 4]: 2988.05 ± 621.39 ng·h/mL
- CL/F [1, 4]: 91.5 ± 12.2 mL/min/kg
- Ka [1, 4]: 1.64 ± 0.35 h⁻¹
- V1/F [1, 4]: 4.58 ± 1.18 L/kg
- t1/2(Ka) [1, 4]: 0.96 ± 0.08 h
- t1/2α [1, 4]: 4.39 ± 0.47 h
- t1/2β [1, 4]: 4.61 ± 0.48 h
- AUC(0-t) [1, 5]: 4345.39 ± 704.69 ng·h/mL
- AUC(0-∞) [1, 5]: 4421.59 ± 723.98 ng·h/mL
- CL/F [1, 5]: 68.2 ± 18.3 mL/min/kg
- Ka [1, 5]: 3.17 ± 0.93 h⁻¹
- V1/F [1, 5]: 7.17 ± 1.40 L/kg
- t1/2(Ka) [1, 5]: 0.26 ± 0.07 h
- t1/2α [1, 5]: 3.47 ± 0.51 h
- t1/2β [1, 5]: 3.86 ± 0.32 h
- Shape of the plasma concentration-time profile ([1]; rats, oral administration, naringin and neohesperidin determined as naringenin and hesperetin): Double-peak phenomenon
SMILES: COc1ccc([C@@H]2CC(=O)c3c(O)cc(O[C@@H]4O[C@H](CO)[C@@H](O)[C@H](O)[C@H]4O[C@@H]4O[C@@H](C)[C@H](O)[C@@H](O)[C@H]4O)cc3O2)cc1O [NHE, neohesperidin]
- Detection in rat plasma [2]: could not been detected
